# In US8748410B2, “Methods of treating aneurysm” (Wisconsin Alumni Research Foundation, priority 2010, dated 2014):
# Legend:
# [1] = test system: calcium chloride induced AAA (CaCl2 AAA); assay: calcium chloride induced AAA in mouse, aneurysm formation; assay type: in vivo; conditions: mice, 1.25 mg/kg i.v., after 7 days
# Text: FIG. 2 illustrates the effect of OLCs inhibition on mouse AAA. Representative pictures of CaCl2 AAA with intravenous (“i.v.”) saline or bisphosphonate injection. Fold increase of the maximum size 7 days after the treatment was shown. n=3, P<0.05. Initially, the inventors identified robust calcification in human AAA samples. The inventors have also identified the existence of OLCs in the medial layer of aneurismal aorta, which were barely detected in age matched aortic tissues from autopsy and stenotic disease both by tartrate-resistant acid phosphatase (“TRAP”) staining, a conventional staining for osteoclast, and immunohistochemistry for osteoclast marker, TRAP (see FIG. 1). The inventors also have identified calcification and OLCs in experimental calcium chloride induced AAA (CaCl2 AAA) in mouse. […] (see FIG. 2) The dose of pamidronate was equivalent to FDA approved dose of pamidronate for osteolytic bone lesions (90 mg/body).
# [2] = test system: pre-existing (induced) AAAs; assay: pre-existing (induced) AAAs in mice, delayed treatment; assay type: in vivo; conditions: weekly injection started 7 days after aneurysm induction, over 5 weeks vs. saline control
# Description: In addition, the inventors have extended their studies to cover the other major subclass of bisphosphonates (i.e., non-nitrogenous bisphosphonates) by studying the effect of etidronate (7.5 mg/kg i.v.) on aneurysm formation over 7 days (see FIG. 3B). The dose of etidronate was equivalent to FDA approved dose for Paget's disease (5-10 mg/kg). […] The bisphosphonate treatment corresponding to the data in FIG. 3A was started 1 week post surgery. The bisphosphonate treatments resulting in the data shown in FIGS. 4 (pamidronate) and 5 (etidronate) differed from the previous treatment in that they included weekly bisphosphonate administration immediately after surgery through 6 weeks post surgery.
smiles,measurement,setting,value
NCCC(O)(P(=O)(O)O)P(=O)(O)O [pamidronate],inhibition of aneurysm formation,[1],apparently complete inhibition of aneurysm formation
same,further growth of the aneurysm,[2],immediately halted further growth of the aneurysm
